The record followed here is ChEMBL document CHEMBL5614385, “A peptide-salinomycin conjugate with a bystander effect reduces the stemness characteristics of ovarian cancer cells and enhances drug sensitivity” (Eur J Med Chem, 2024).

Assay [1] has as its system SK-OV-3/CDDP. As to the kind of experiment: Cytotoxicity against human SK-OV-3/CDDP cells assessed as inhibition of cell proliferation incubated for 72 hrs by CCK8 assay. The assay is classed as functional, cell-based. (In general: Tetrazolium dyes change colour on reduction, which living cells bring about.)
Assay [2] relates to DU-145. The experiment in a line: Cytotoxicity against human DU-145 cells assessed as inhibition of cell growth incubated for 72 hrs by CCK8 assay. Format: functional, cell-based. Particulars: DU-145, 72 h.
Assay [3] has as its system MIA PaCa-2. As to the kind of experiment: Cytotoxicity against human MIA PaCa-2 cells assessed as inhibition of cell growth incubated for 72 hrs by CCK8 assay. Format: functional, cell-based. The settings on record: MIA PaCa-2, 72 h.
Assay [4] concerns MDA-MB-231. As to the kind of experiment: Cytotoxicity against human MDA-MB-231 cells assessed as inhibition of cell growth incubated for 72 hrs by CCK8 assay. The assay is classed as functional, cell-based. Particulars: MDA-MB-231, 72 h.
Assay [5] deals with A549. As to the kind of experiment: Cytotoxicity against human A549 cells assessed as inhibition of cell growth incubated for 72 hrs by CCK8 assay. The assay is classed as functional, cell-based. The settings on record: A549, 72 h.
For assay [6], the system named is SK-OV-3. As to the kind of experiment: Inhibition of cell invasion in human SK-OV-3 cells incubated for 24 hrs by crystal violet staining based transwell invasion assay. The assay is classed as functional. The settings on record: dose 5.0 µM.
Assay [7] deals with HCCLM3. The experiment in a line: Cytotoxicity against human HCCLM3 cells assessed as inhibition of cell growth incubated for 72 hrs by CCK8 assay. The assay is classed as functional, cell-based. The settings on record: HCCLM3, 72 h.
Assay [8] relates to SK-OV-3. As to the kind of experiment: Inhibition of tumor sphere formation in agarose-treated human SK-OV-3 cells assessed as fold decrease in number of formed spheres by imaging analysis. Format: functional.
The subject of assay [9] is ACHN. As to the kind of experiment: Cytotoxicity against human ACHN cells assessed as inhibition of cell growth incubated for 72 hrs by CCK8 assay. Format: functional, cell-based.
In assay [10] the test system is CAL-27. As to the kind of experiment: Cytotoxicity against human CAL-27 cells assessed as inhibition of cell growth incubated for 72 hrs by CCK8 assay. Format: functional, cell-based. The settings on record: CAL-27, 72 h.
Assay [11] concerns the target Vascular endothelial growth factor receptor 2 (Homo sapiens) (UniProt P35968). The experiment in a line: Inhibition of VEGFR2 phosphorylation in human SK-OV-3 cells at 5 uM incubated for 24 hrs by Western blot analysis. Format: cell-based. (Immunoblotting shows a protein as a band on a membrane.)
The subject of assay [12] is SK-OV-3. As to the kind of experiment: Inhibition of AKT phosphorylation in human SK-OV-3 cells at 5 uM incubated for 24 hrs by Western blot analysis. The assay is classed as cell-based.
Assay [13] relates to A-431. The experiment in a line: Cytotoxicity against human A-431 cells assessed as inhibition of cell growth incubated for 72 hrs by CCK8 assay. The settings on record: A-431, 72 h. The assay is classed as functional, cell-based.
In assay [14] the test system is SK-OV-3. The experiment in a line: Antitumor activity against CD44 positive human SK-OV-3 cells assessed as reduction in cell viability incubated for 72 hrs by CCK8 assay. Particulars: SK-OV-3, 72 h. Format: functional, cell-based.
For assay [15], the system named is A2780. As to the kind of experiment: Antitumor activity against CD44 negative human A2780 cells assessed as reduction in cell viability incubated for 72 hrs by CCK8 assay. Format: functional, cell-based. Particulars: A2780, 72 h.
The test system of assay [16] is SK-OV-3. The experiment in a line: Inhibition of cell migration in human SK-OV-3 cells at 5 uM incubated for 24 hrs by microscope based wound healing assay. Format: functional.
In assay [17] the test system is HeLa. The experiment in a line: Cytotoxicity against human HeLa cells assessed as inhibition of cell growth incubated for 72 hrs by CCK8 assay. The assay is classed as functional, cell-based.
Assay [18] relates to MKN-45. As to the kind of experiment: Cytotoxicity against human MKN-45 cells assessed as inhibition of cell growth incubated for 72 hrs by CCK8 assay. Format: functional, cell-based. The settings on record: MKN-45, 72 h.
In assay [19] the test system is MCF7. The experiment in a line: Cytotoxicity against human MCF7 cells assessed as inhibition of cell growth incubated for 72 hrs by CCK8 assay. Format: functional, cell-based. The settings on record: MCF7, 72 h.
In assay [20] the test system is SK-OV-3. As to the kind of experiment: Inhibition of tumor sphere formation in agarose-treated human SK-OV-3 cells assessed as decrease in number of formed spheres at 10 nM incubated for 9 days by imaging analysis. The assay is classed as functional, cell-based. The settings on record: time 9.0 day.

The source made the active and inactive calls. No cut-off for these calls is given here.

Sequence of Vascular endothelial growth factor receptor 2 (Homo sapiens) (P35968 whole entry): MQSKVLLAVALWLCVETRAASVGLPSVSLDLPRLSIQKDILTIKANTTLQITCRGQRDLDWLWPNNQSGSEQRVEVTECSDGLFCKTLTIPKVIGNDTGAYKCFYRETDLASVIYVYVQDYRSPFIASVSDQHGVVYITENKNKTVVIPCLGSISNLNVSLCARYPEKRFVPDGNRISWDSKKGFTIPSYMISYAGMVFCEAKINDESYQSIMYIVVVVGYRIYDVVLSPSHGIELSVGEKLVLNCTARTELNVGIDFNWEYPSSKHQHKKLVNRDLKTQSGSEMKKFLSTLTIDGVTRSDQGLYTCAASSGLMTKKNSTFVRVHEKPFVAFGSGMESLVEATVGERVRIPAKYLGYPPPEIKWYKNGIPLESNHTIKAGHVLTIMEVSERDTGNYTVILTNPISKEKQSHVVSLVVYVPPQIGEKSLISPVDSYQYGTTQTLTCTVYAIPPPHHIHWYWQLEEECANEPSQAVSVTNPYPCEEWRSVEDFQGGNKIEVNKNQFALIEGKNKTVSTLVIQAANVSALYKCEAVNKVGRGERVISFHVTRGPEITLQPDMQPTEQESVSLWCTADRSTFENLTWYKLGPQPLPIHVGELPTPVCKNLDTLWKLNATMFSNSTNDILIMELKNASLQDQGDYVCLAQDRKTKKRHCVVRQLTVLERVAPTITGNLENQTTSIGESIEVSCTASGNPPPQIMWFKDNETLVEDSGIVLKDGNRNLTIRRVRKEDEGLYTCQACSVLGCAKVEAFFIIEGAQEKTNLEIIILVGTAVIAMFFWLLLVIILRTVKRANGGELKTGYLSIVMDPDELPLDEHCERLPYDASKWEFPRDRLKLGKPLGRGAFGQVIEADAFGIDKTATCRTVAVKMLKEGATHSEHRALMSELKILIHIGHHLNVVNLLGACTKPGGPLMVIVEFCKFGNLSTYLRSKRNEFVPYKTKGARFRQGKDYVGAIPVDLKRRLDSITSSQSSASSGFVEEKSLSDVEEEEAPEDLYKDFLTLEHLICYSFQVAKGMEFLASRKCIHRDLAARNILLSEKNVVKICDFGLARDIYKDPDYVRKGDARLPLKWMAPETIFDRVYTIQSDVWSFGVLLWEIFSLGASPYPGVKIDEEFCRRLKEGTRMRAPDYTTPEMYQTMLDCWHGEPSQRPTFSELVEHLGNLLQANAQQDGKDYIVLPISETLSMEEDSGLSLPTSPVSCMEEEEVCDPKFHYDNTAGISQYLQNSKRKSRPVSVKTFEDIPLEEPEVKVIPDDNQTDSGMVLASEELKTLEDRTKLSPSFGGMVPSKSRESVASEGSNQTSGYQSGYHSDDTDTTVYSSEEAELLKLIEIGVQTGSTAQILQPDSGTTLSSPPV

As usually defined, the IC50 is the concentration at which inhibition is half-maximal. As to `CC[C@@H](C(=O)[O-])C1CC[C@H](C)C([C@@H](C)[C@H](O)[C@H](C)C(=O)[C@H](CC)C2O[C@]3(C=C[C@@H](NC(=O)CCSSc4ccccc4)[C@]4(CC[C@@](C)(C5CC[C@](O)(CC)[C@H](C)O5)O4)O3)[C@H](C)C[C@@H]2C)O1.[Na+]` (stereo not given in full), the IC50 in [1] was found to be 4.45 µM; in assay [2] it was 30.9 µM; in assay [3], 1.14 µM; in assay [4], 0.98 µM; in assay [5], 14.4 µM; in [7], 1.33 µM. Besides, the 50% inhibitory concentration (IC50) in assay [9] is 7.37 µM; in assay [10], 3.73 µM; in assay [13], 2.95 µM; in assay [14], 4.39 µM; in assay [15], 0.11 µM; in assay [17], 3.76 µM. The values for the IC50 in [18] and in [19] were 1.47 µM and 8.23 µM, respectively. For the same compound, the inhibition entry in assay [6] is “Dose-Dependent Effect”. For the same compound, in assay [8], the “fold change (FC)” value is on record as 4.6. For the same compound, the inhibition entry in [11], in assay [12] and in assay [16] was “Active” in each case.

Consider `CC(=O)O[C@H]1C(=O)[C@@]2(C)[C@H]([C@H](OC(=O)c3ccccc3)[C@]3(O)C[C@H](OC(=O)[C@H](O)[C@@H](NC(=O)c4ccccc4)c4ccccc4)C(C)=C1C3(C)C)[C@]1(OC(C)=O)CO[C@@H]1C[C@@H]2O`, for which the inhibition result in assay [20] is “Active”.
